The target of one experiment is T1, CDK9/Cyclin T1 (Homo sapiens, UniProt P50750).
T1 construct: His; purchased Invitrogen
Description: LanthaScreen Eu Kinase Binding Assay, CDK9/Cyclin T1. To be noted: tracer 236, read-out: CDK9/Cyclin T1 (activity range), Kd. In a few lines:
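TR-FRET displacement of an Alexa Fluor 647 active-site tracer, detected with a Eu anti-GST antibody, over an 8-point 1:3 compound series. Tracer was set at its Kd (30 nM for CDK2/Cyclin A, CDK7 and CDK9/Cyclin T1; 35 nM for CDK9/Cyclin K). Read after 1 h at room temperature; Kd was fitted from sigmoidal curves.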

A further experiment has as its target T2, CDK6/CyclinD3 (Homo sapiens, UniProt Q00534).
T2 construct: purchased Carna
Description: Lance Ultra KinaSelect Assay, CDK6. It is filed as biochemical. To be noted: ATP 55 μM; read-out: CDK6 LANCE assay (activity range), IC50. As for the experimental part:
(§1) 2. Measurement of half maximal inhibitory concentration to CDKs This protocol describes how the Lance Ultra KinaSelect Assay was performed to determine half maximal inhibitory concentration (1050) of compounds of general formula (I) and CDK/Cyclin complexes. The principle behind this enzymatic assay is based upon the phosphorylation of the ULight-Peptide Substrat. It is detected by using a specific
(§2) EU-labeled anti-phospho peptide antibody. The binding of the Eu-labeled anti-phospho peptide antibody to the phosphorylated ULight labeled peptide gives rise to a FRET-signal. Binding of an inhibitor to the kinase prevents phosphorylation of the ULight-MBP Substrat, resulting in a loss of FRET.
(§3) The compounds of general formula (I) summarized in Table 5 were diluted from a 10 mM DMSO stock solution 1:10 in a total volume of 15 μL DMSO. This compound predilution was then serial diluted 1:3 over 8 steps in DMSO and briefly spun down. Each compound solution was now diluted 1:20 in Enzymatic Buffer (HEPES: 50 mM, pH: 7.5; MgCl2: 10 mM; EGTA: 1 mM; DTT: 2 mM; Tween-20: 0.01%), mixed thoroughly and spun down. For every sample, 2 μL of the diluted compound were mixed with 6 μL CDK/Cyclin/Substrat solution and 2 μL ATP solution in a well of a small volume 384 well plate (Corning Incorporated, Corning, N.Y., USA; order no. 3673). The CDK/Cyclin was diluted to the appropriate concentration (see Table 3) and the ATP concentration was adjusted to its […] for the CDK/Cyclin, which was 3 μM for CDK2/Cyclin A, 20 μM for CDK1/Cyclin B1, 25 μM for CDK7/Cyclin H and CDK9/Cyclin T1, 55 μM for CDK6/Cyclin D3, 90 μM for CDK4/Cyclin D1 and 125 μM for CDK9/Cyclin K. For negative controls, in each well 2 μL of DMSO solution (1% final DMSO assay concentration) was mixed with 6 μL substrate solution (50 nM ULight MBP final assay concentration) and 2 μL ATP solution (appropriate final concentration see Table 3). For positive controls, in each well 2 μL of DMSO solution (1% final DMSO assay concentration) was mixed with 6 μL CDK/Cyclin/Substrat (appropriate final concentration see Table 3) and 2 μL Tracer ATP solution (appropriate final concentration see Table 3). Positive and negative controls were calculated from at least 8 different sample wells. The 384 well plates were mixed in a Teleshaker plate mixer (Beckman Coulter, Brea, Calif., USA) at 2000 rpm for 40 sec, and incubated for 1 h at room temperature. Before reading, 10 μL the detection buffer (Lance Detection Buffer 1×; EDTA: […]; Eu-Anti-P-MBP: see Table 3) was added. The FRET signal was measured at 340 nm excitation, 665 nm and 615 nm emission (for the kinase tracer and LanthaScreen Eu-AB, respectively) with an Envision spectrophotometer (Perkin Elmer, Waltham, Mass., USA) with 50 μs delay and 300 μs integration time. IC50 values were determined from the sigmoidal dose response curves with the software Quattro Workflow (Quattro GmbH, Munich, Germany).

The target of the next experiment is T3, CDK4/CyclinD1 (Homo sapiens, UniProt P11802).
T3 construct: purchased Invitrogen
T3 sequence (P11802 whole entry): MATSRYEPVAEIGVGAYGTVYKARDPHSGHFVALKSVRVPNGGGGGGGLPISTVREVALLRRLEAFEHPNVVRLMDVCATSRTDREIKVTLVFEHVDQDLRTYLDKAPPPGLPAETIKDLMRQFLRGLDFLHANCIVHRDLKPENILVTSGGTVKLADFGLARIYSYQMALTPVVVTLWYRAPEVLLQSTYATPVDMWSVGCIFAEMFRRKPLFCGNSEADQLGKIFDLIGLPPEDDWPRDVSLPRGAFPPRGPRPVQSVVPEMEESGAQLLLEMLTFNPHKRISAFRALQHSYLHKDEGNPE
T3 sequence (P24385 whole entry partner): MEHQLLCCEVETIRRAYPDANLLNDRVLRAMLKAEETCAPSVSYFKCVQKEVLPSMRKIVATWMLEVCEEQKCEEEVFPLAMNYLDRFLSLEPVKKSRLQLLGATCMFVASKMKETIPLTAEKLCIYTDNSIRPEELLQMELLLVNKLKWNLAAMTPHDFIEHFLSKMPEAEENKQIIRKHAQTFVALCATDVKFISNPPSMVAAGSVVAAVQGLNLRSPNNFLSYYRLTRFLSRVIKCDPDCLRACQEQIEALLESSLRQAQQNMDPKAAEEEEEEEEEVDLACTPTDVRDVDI
Briefly: Lance Ultra KinaSelect Assay, CDK4. It is filed as biochemical. To be noted: ATP 90 μM; read-out: CDK4 LANCE assay (activity range), IC50. As for the experimental part: as §1, §2, §3

In patent US9226929B2, “Pharmaceutically active disubstituted triazine derivatives” (Bayer Intellectual Property GMBH, priority 2011, dated 2016) one finds Kd and IC50 data, which are given here for nine compounds.

A value given as a limit tells only on which side of the number the result lay.

T2 sequence (Q00534 whole entry): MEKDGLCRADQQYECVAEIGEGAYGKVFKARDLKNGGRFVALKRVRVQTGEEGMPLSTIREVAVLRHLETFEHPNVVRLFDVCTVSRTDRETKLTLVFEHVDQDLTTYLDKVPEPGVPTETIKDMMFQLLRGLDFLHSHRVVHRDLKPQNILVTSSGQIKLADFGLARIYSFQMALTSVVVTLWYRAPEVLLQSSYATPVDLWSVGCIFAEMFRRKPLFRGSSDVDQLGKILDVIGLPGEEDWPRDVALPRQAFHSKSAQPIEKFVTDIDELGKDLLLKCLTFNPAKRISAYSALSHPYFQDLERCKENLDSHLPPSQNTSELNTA
T2 sequence (P30281 whole entry partner): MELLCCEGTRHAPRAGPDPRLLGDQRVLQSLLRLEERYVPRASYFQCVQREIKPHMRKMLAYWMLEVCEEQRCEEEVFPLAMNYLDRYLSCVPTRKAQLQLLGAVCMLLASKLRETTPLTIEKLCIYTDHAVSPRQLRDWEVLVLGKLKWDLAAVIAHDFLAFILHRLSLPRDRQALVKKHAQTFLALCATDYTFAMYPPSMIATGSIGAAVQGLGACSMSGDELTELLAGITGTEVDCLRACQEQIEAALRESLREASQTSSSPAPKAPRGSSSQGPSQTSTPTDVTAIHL
T1 sequence (P50750 whole entry): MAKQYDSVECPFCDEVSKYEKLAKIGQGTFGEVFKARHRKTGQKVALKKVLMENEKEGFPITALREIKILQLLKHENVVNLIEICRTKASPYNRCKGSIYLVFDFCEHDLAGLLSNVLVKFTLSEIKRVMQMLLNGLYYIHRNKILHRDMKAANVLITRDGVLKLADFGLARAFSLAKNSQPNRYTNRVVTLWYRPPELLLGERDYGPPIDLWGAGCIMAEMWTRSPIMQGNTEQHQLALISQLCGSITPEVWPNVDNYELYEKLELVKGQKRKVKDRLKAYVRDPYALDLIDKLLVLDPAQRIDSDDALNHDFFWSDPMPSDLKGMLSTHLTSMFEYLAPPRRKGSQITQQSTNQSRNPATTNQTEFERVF
T1 sequence (O60563 whole entry partner): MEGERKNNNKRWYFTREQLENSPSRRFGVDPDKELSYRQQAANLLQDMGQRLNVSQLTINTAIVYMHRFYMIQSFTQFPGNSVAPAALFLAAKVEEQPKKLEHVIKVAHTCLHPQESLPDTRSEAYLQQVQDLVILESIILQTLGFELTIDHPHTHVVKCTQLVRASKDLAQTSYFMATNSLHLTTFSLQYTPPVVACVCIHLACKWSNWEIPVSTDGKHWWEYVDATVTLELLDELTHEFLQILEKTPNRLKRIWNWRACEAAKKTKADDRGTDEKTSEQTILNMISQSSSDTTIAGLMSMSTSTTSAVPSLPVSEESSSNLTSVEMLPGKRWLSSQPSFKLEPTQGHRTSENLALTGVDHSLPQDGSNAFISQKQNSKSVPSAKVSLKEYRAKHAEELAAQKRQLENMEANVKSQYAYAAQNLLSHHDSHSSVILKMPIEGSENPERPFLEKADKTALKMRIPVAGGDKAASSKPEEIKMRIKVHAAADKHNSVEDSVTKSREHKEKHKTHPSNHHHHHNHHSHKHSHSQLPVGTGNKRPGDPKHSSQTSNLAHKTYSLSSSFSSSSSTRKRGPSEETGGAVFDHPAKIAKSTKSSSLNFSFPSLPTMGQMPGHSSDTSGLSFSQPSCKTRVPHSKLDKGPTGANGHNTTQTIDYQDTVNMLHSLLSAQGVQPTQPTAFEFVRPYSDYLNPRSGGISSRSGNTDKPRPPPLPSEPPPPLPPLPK

`NS(=O)(=O)Cc1cccc(Nc2ncnc(N3CCc4nc[nH]c4C3)n2)c1` [Compound B44, 3-[(4-(6,7-Dihydro-3H-imidazo[4,5-c]pyridin-5(4H)-yl)-1,3,5-triazin-2-yl)amino]benzenemethanesulfonamide]: at CDK9/Cyclin T1, the Kd is < 0.1 µM.
Same read-out and setting: to `COC(=O)[C@H]1CCCN1c1ncnc(Nc2cccc(CS(N)(=O)=O)c2)n1` [Compound B21, (R)-Methyl 1-[4-((3-(Sulfamoylmethyl)phenyl)amino)-1,3,5-triazin-2-yl]pyrrolidine-2-carboxylate] belongs < 0.1 µM.
Consider `COC[C@H]1CCCN1c1ncnc(Nc2cccc(CS(N)(=O)=O)c2)n1` [Compound B17, (R)-3-[(4-(2-(Methoxymethyl)pyrrolidin-1-yl)-1,3,5-triazin-2-yl)amino]benzenemethanesulfonamide], for which the IC50 on CDK6/CyclinD3 and at CDK4/CyclinD1 was > 10 µM throughout. Further, the Kd on CDK9/Cyclin T1 was < 0.1 µM.
For `NS(=O)(=O)Cc1cccc(Nc2ncnc(N3CCc4ncsc4C3)n2)c1` [Compound B45, 3-[(4-(6,7-Dihydrothiazolo[5,4-c]pyridin-5(4H)-yl)-1,3,5-triazin-2-yl)amino]benzenemethanesulfonamide], the Kd at CDK9/Cyclin T1 was < 0.1 µM.
With `NS(=O)(=O)Cc1cccc(Nc2ncnc(N3CCCCC3)n2)c1` [Compound B1, 3-[(4-(Piperidin-1-yl)-1,3,5-triazin-2-yl)amino]benzenemethane sulfonamide], the IC50 at CDK6/CyclinD3 and on CDK4/CyclinD1 was > 10 µM in each case. For the same compound, the Kd at CDK9/Cyclin T1 lay in the range of 0.1 to 1 µM.
On to `NS(=O)(=O)Cc1cccc(Nc2ncnc(N3CCc4ncccc4C3)n2)c1` [Compound B38, 3-[(4-(7,8-Dihydro-1,6-naphthyridin-6(5H)-yl)-1,3,5-triazin-2-yl)amino]-benzenemethanesulfonamide], for which the IC50 on CDK6/CyclinD3 and at CDK4/CyclinD1 was > 10 µM each time. Further, the Kd at CDK9/Cyclin T1 was < 0.1 µM.
With `NS(=O)(=O)Cc1cccc(Nc2ncnc(N3CCCn4nccc43)n2)c1` [Compound B47, 3-[(4-(6,7-Dihydropyrazolo[1,5-a]pyrimidin-4(5H)-yl)-1,3,5-triazin-2-yl)amino]benzenemethanesulfonamide], the IC50 at CDK6/CyclinD3 and on CDK4/CyclinD1 was 1 to 10 µM each time. The Kd at CDK9/Cyclin T1 is < 0.1 µM.
Take `NS(=O)(=O)Cc1cccc(Nc2ncnc(N3CCCC3c3ccccc3)n2)c1` (racemic) [Compound B33, rac-3-[(4-(2-Phenylpyrrolidin-1-yl)-1,3,5-triazin-2-yl)amino]-benzenemethanesulfonamide]: the IC50 on CDK6/CyclinD3 and at CDK4/CyclinD1 was > 10 µM each time. Besides, at CDK9/Cyclin T1, the Kd is < 0.1 µM.
On to `NS(=O)(=O)Cc1cccc(Nc2ncnc(N3Cc4cn[nH]c4C3)n2)c1` [Compound B51, 3-[(4-(Pyrrolo[3,4-c]pyrazol-5(1H,4H,6H)-yl)-1,3,5-triazin-2-yl)amino]-benzenemethanesulfonamide], for which the IC50 on CDK6/CyclinD3 and on CDK4/CyclinD1 was > 10 µM in each case. The Kd at CDK9/Cyclin T1 is < 0.1 µM.
